Measured values published in US20220007644A1, “COMPOSITIONS COMPRISING PYRIDINE CARBOXYLATE HERBICIDES WITH PHOTOSYSTEM II AND OPTIONAL HPPD INHIBITOR HERBICIDES” (Corteva Agriscience LLC, priority 2018, published 2022).
Where “and” joins values, the source holds several entries; their conditions need not be identical. Identical values can stand only once.

Assays:
Assay type in all cases: in vivo
[1] = tested on: ABUTH, Abutilon theophrasti (velvetleaf); assay: Greenhouse postemergence herbicidal effect (visual injury, 20-22 d); details: for % visual injury, Obs: ABUTH, Compound A 10 g/ha
Description: (§1) Greenhouse Trial Methodology—Evaluation of Postemergence Herbicidal Effect
(§2) Seeds of the desired test plant species were planted in a 90:10% v/v (volume/volume) mixture of PRO-MIX® BX (Premier Tech Horticulture, Quakertown, Pa., USA) and PROFILE®GREENS GRADE™ (Profile Products LLC, Buffalo Grove, Ill., USA) planting mixture, which typically has a pH of 5.2 to 6.2 and an organic matter content of at least 50 percent, in plastic pots with a surface area of 103.2 square centimeters (cm^2). In some aspects, to help ensure good germination and healthy plants, a fungicide treatment and/or other chemical or physical treatment was applied. The plants were grown for 7-36 days (d) in a greenhouse with an approximate 14-hour (h) photoperiod which was maintained at about 23° C. during the day and 22° C. during the night. Nutrients and water were added on a regular basis and supplemental lighting was provided with overhead metal halide 1000-Watt lamps as necessary. The plants were employed for testing when they reached the second or third true leaf stage.
(§3) Emulsifiable concentrates of each of each pyridine carboxylate herbicide (Compound A or Compound B) were prepared at 100 grams acid equivalent per liter (g ae/L). The emulsifiable concentrates also included a safener, cloquintocet-mexyl, at 120 grams active ingredient per liter (g ai/L), unless otherwise noted below. An aliquot of each emulsifiable concentrate was placed in a 25 mL glass vial and diluted with an aqueous mixture of 1.25% (v/v) ACTIROB® B esterified rapeseed oil (Bayer Crop Science, Research Triangle Park, N.C., USA) or MSO® Concentrate with LECI-TECH® methylated soybean oil (Loveland Products, Loveland, Colo., USA) to obtain concentrated stock solutions at the highest application rate for each herbicide, based upon a 12 milliliter (mL) application volume at a rate of 187 liters per hectare (L/ha). The concentrated stock solutions were further diluted with an aqueous mixture of 1.25% v/v ACTIROB® B or MSO® Concentrate with LECI-TECH® to obtain stock solutions at reduced application rates for each herbicide. Spray solutions of the herbicide combinations (Compound A or Compound B plus PS-II herbicide and optional HPPD herbicide) were prepared by adding weighed amounts or aliquots of the PS-II herbicide and optional HPPD herbicide to the stock solutions of Compound A or Compound B to form 12-mL spray solutions in two- or three-way combinations.
(§4) The spray solutions were applied to the plant material with an overhead Mandel track sprayer equipped with 8002E nozzles calibrated to deliver 187 L/ha over an application area of 0.503 square meters (m^2) at a spray height of 18 inches ([…] centimeters (cm)) above the average plant canopy. Control plants were sprayed in the same manner with the solvent blank. All pyridine carboxylate herbicide (component a) application rates are given as “g ae/ha” and all PS II inhibitor herbicide (component b) and HPPD inhibitor herbicide (component c) application rates are given as “g ai/ha.”
(§5) The treated plants and control plants were placed in a greenhouse as described above and watered by sub-irrigation to prevent wash-off of the test compounds. After 20-22 d, the condition of the test plants as compared with that of the control plants was determined visually and scored on a scale of 0 to 100 percent where 0 corresponds to no injury and 100 corresponds to complete kill.

[2] = tested on: AVEFA, Avena fatua (wild oat); assay: as above
Description: as §1, §2, §3, §4, §5

[3] = tested on: BRSNW, Brassica napus (winter rape); assay: as above
Description: as §1, §2, §3, §4, §5

[4] = tested on: CYPES, Cyperus esculentus (nutsedge); assay: as above; details: Compound A 10 g/ha
Description: as §1, §2, §3, §4, §5

[5] = tested on: GLXMA, Glycine max (soybean); assay: as above; details: for % visual injury, Obs: GLXMA, Compound A 10 g/ha
Description: as §1, §2, §3, §4, §5

[6] = tested on: KCHSC, Kochia scoparia (kochia); assay: as above
Description: as §1, §2, §3, §4, §5

[7] = tested on: LOLMU, Lolium multiflorum (Italian ryegrass); assay: as above; details: Compound A 10 g/ha, without cloquintocet-mexyl safener
Description: as §1, §2, §3, §4, §5

[8] = tested on: MATCH, Matricaria chamomilla (wild chamomile); assay: as above
Description: as §1, §2, §3, §4, §5

[9] = tested on: POLCO, Polygonum convolvulus (wild buckwheat); assay: as above; details: POLCO, Compound A 10 g/ha
Description: as §1, §2, §3, §4, §5

[10] = tested on: RUMOB, Rumex obtusifolius (broad-leaf dock); assay: as above; details: Compound A 10 g/ha
Description: as §1, §2, §3, §4, §5

[11] = tested on: SASKR, Salsola kali (Russian thistle); assay: as above
Description: as §1, §2, §3, §4, §5

[12] = tested on: SETFA, Setaria faberi (giant foxtail); assay: as above; details: SETFA, Compound A 10 g/ha
Description: as §1, §2, §3, §4, §5

[13] = tested on: SINAR, Sinapis arvensis (wild mustard); assay: as above
Description: as §1, §2, §3, §4, §5

[14] = tested on: STEME, Stellaria media (chickweed); assay: as above; details: STEME, Compound A 10 g/ha
Description: as §1, §2, §3, §4, §5

[15] = tested on: VIOTR, Viola tricolor (wild pansy); assay: as above
Description: as §1, §2, §3, §4, §5

[16] = tested on: HORVS, Hordeum vulgare (spring barley); assay: Greenhouse postemergence phytotoxicity on crop (visual injury, 20-22 d)
Description: as §1, §2, §3, §4, §5

[17] = tested on: TRZAS, Triticum aestivum (spring wheat); assay: as above
Description: as §1, §2, §3, §4, §5

ZEAMX, Zea mays (maize) = assay: as above; details: Compound A 10 g/ha
Description: as §1, §2, §3, §4, §5

[18] = without cloquintocet-mexyl safener

## N#CCOC(=O)c1nc(-c2ccc3cc[nH]c3c2F)c(F)c(N)c1Cl [Compound A, cyanomethyl 4-amino-3-chloro-5-fluoro-6-(7-fluoro-1H-indol-6-yl)pyridine-2-carboxylate]
[1]; 7.5 g ae/ha alone
  visual injury: 68%
[1]; 10 g ae/ha alone
  visual injury: 80%
[1]
  % visual injury, Obs: 80%
[1]; [18]
  % visual injury, Obs: 75%
[2]; 7.5 g ae/ha alone
  visual injury: 0%
[2]; 10 g ae/ha alone
  visual injury: 0%
[2]; AVEFA, Compound A 10 g/ha, without cloquintocet-mexyl safener
  % visual injury, Obs: 0%
[3]; 7.5 g ae/ha alone
  visual injury: 35% and 63%
[3]; 10 g ae/ha alone
  visual injury: 43% and 68% and 40%
[3]; BRSNW, Compound A 10 g/ha, without cloquintocet-mexyl safener
  % visual injury, Obs: 65%
[4]
  % visual injury, Obs: 8%
[4]; [18]
  % visual injury, Obs: 0%
[5]; 7.5 g ae/ha alone
  visual injury: 80%
[5]; 10 g ae/ha alone
  visual injury: 90%
[5]
  % visual injury, Obs: 90%
[5]; [18]
  % visual injury, Obs: 85%
[6]; 7.5 g ae/ha alone
  visual injury: 63% and 50% and 65% and 70%
[6]; 10 g ae/ha alone
  visual injury: 63% and 58% and 70%
[6]; KCHSC, Compound A 10 g/ha, without cloquintocet-mexyl safener
  % visual injury, Obs: 88%
[7]
  % visual injury, Obs: 0%
[8]; 7.5 g ae/ha alone
  visual injury: 20% and 18% and 10%
[8]; 10 g ae/ha alone
  visual injury: 30% and 20%
[9]
  % visual injury, Obs: 93%
[9]; [18]
  % visual injury, Obs: 78%
[10]
  % visual injury, Obs: 13%
[10]; [18]
  % visual injury, Obs: 35%
[11]; 7.5 g ae/ha alone
  visual injury: 60% and 45%
[11]; 10 g ae/ha alone
  visual injury: 63% and 60%
[12]
  % visual injury, Obs: 80%
[12]; [18]
  % visual injury, Obs: 0%
[13]; 7.5 g ae/ha alone
  visual injury: 88% and 85% and 83%
[13]; 10 g ae/ha alone
  visual injury: 90% and 92% and 88%
[14]
  % visual injury, Obs: 90%
[14]; [18]
  % visual injury, Obs: 88%
[15]; 7.5 g ae/ha alone
  visual injury: 45%
[15]; 10 g ae/ha alone
  visual injury: 15%
[15]; VIOTR, Compound A 10 g/ha, without cloquintocet-mexyl safener
  % visual injury, Obs: 15%
[16]; 7.5 g ae/ha alone
  visual injury: 0% and 8%
[16]; 10 g ae/ha alone
  visual injury: 0%
[17]; 7.5 g ae/ha alone
  visual injury: 0%
[17]; 10 g ae/ha alone
  visual injury: 0%
[17]; TRZAS, Compound A 10 g/ha
  % visual injury, Obs: 3%
ZEAMX, Zea mays (maize)
  % visual injury, Obs: 0%
